The source of these data is US7122541B2, “Methods of inhibiting metastases” (Rhode Island Hospital, priority 2001, dated 2006).

Entries after “also recorded” stand apart in the source; their conditions may differ.

For data set [1], the system named is LS-180 hepatic metastases. The data set can be described thus: Liver metastases model: splenic injection of LS-180 cells in nude mice, IP treatment. The data set is classed as in vivo. The note with it: for Serum CEA: mean ± SE, n = 20, after 3 weeks IP Taurolidine; for reduction in serum CEA levels vs control: 3 weeks IP therapy; for reduction in liver weight vs control: daily IP, 5 days/week, 3 weeks. The protocol: General anesthesia was induced using 400 μl choral hydrate (2%). Using sterile conditions, a vertical paramedian incision was used to expose the spleen. An intrasplenic injection of 1×10^5 tumor cells in 0.4 ml of serum free medium was performed, followed by splenectomy using hemoclips for vascular control. The incision was then closed using surgical staples. Beginning post injections days 2 or 5, mice received IP injections of 0.45% normal saline (n=10 per group) or Taurolidine (n=20 per group). Taurolidine (Boehringer Ingelheim, Germany) was given as a daily 0.5 ml IP injection of 2% solution ([…]) for 5 consecutive days per week for a total of 3 weeks. The day following the last treatment of Taurolidine or 0.45% NS, the mice were sacrificed and examined for gross tumor. Blood was drawn from the right ventricle, immediately centrifuged, and serum collected for CEA assays. The livers were weighed and fixed in HistoFix and representative sections taken for H&E microscopic examination. In addition, 9 mice (n=3 per group) were used to study the tumor model. At days 5, 10 and 15, mice that received a splenic tumor cell injection without any further intervention were sacrificed to assess tumor burden at varying time points. The livers were assessed for gross tumor and submitted in toto for histologic examination.

For a further data set, the system named is caspase-3. The data set can be described thus: Caspase-3 colorimetric assay (DEVD-pNA substrate). The data set is classed as cell-based, human. The protocol:
To measure caspase activity, cells were incubated in six-well Falcon plates (1×10^6 cells/well) and harvested by trypsinization. The cells were then pelleted and lysed as per the manufacturer's recommendation (MBL, Nagoya, Japan) and the cytosolic protein concentration was quantified using a BCA protein assay reagent (Pierce, Rockford, Ill.). The caspase-3 assay was performed in a 96-well microtiter plate using 100 μg of protein and 5 μl of 4 mM DEVD-pNA Substrate (CPP32/caspase-3 Colorimetric Protease Assay Kit; MBL, Nagoya, Japan). The protein and reagent were then incubated for 2 hours at 37° C. A background reading from cell lysates and buffer without DEVD-pNA substrate was subtracted from samples; the assay was performed in triplicate. Samples were read at 405 nm in a microtiter plate reader.
Caspase Inhibitor I (Z-VAD-fink; z-Val-Ala-Asp(OMe)-CH2F, Calbiochem; La Jolla, Calif.) was used from a 21 mM stock in DMSO stored at −20° C. until use and then diluted into tissue culture medium immediately prior to its application. After a 2-hour incubation with the caspase inhibitor, cells were treated with Taurolidine. […] Untreated cells received an equivalent dilution of DMSO.

The subject of data set [2] is LS-180 cells. The data set is described as follows: Flow cytometry (propidium iodide / BrdU) cell cycle and DNA content analysis. In kind it is cell-based, human. The protocol: FIGS. 4A–D are histograms showing that Taurolidine induces apoptosis in human colon cancer cells. In FIGS. 4A–C, LS-180 cells were treated with 100, 200, and 400 μM concentrations of Taurolidine. After 24 hours the cells were harvested by trypsinization, labeled with propidium iodide, and their DNA content was measured by flow cytometry. The percentage of subdiploid DNA content, representing DNA degradation in apoptotic cells, is shown. […] LS-180 cells were treated with 100, 200, and 400 -μM concentrations of Taurolidine and harvested by trypsinization at 12, 24, and 36 hours. Caspase-3 activity was assessed by its ability to cleave the DEVD-pNA colorimetric substrate.
LS-180 cells were cultured in 100 mm Falcon plates (5×10^6 cells/plate) for 12 hours to become adherent. Cells were incubated for 12, 14 and 48 hours with complete medium (control) or 50, 100 and […] concentrations of Taurolidine. The cells were then treated with 10 μm bromodeoxyuridine (BrdU) for 30 minutes, and both floating and adherent cells were harvested for fixation in 70% ethanol. The DNA was denatured using 2N HCl and labeled with FITC-conjugated anti-BrdU antibody (anti-bromodeoxyuridine-fluorescein monoclonal antibody; Roche, Indianapolis, Ind.). Before analysis by flow cytometry the cells were treated with ribonuclease (Dnase-free ribonuclease, Roche, Indianapolis, Ind.) and propidium iodide (Sigma, St. Louis, Mo.). FACs analysis was performed on a FACscan flow cytometer (Becton Dickinson, N.J.).

The test system of data set [3] is LS-180 cells. The data set is described as follows: Light microscopy / Hoechst 33258 staining for apoptotic morphology. In kind it is cell-based, human. The note with it: even at 400 μm; light microscopy or Hoechst 33258.
Data set [4] concerns LS-180 cells. The data set can be described thus: Lactate dehydrogenase (LDH) release cytotoxicity assay. The data set is classed as cell-based, human. Particulars: 100, 200 and 400 μM, 24 hours. The protocol:
(§1) Cytotoxicity was quantified using a standard lactate dehydrogenase cytotoxicity assay (Cytotoxicity Detection Kit, Roche). LS-180 cells (2.5×10^5 cell/well) were cultured in Falcon 96-well microtiter plates in a humidified incubator at 37° C., 5% CO2. […] Triton X-100 (1% final concentration) was used to lyse cells and determine the maximum release of LDH enzyme (high control). Cytotoxicity was determined as per the manufacturer's protocol, and the absorbance was measured at 490 nm in a microtiter plate reader.
(§2) Cytotoxicity was assessed by measuring lactate dehyhdrogenase (LDH) activity released from the cytosol of damaged cells. […] Taurolidine, even at a 400 μm concentration, produced minimal cytotoxic effects on LS-180 cells. […] This is in contradistinction to previously reported in vitro studies of Taurolidine on malignant cell lines.

Experiment in data set [5]: as above
The data set is classed as cell-based, human. The note with it: human, LS-180 cells. The protocol:
as §1, §2

For data set [6], the system named is LS-180 cells. The data set can be described thus: WST-8 tetrazolium cell number assay. The note with it: dose-dependent; concentration not given.
For data set [7], the system named is LS-180 cells. The data set can be described thus: MTT cell proliferation assay. The data set is classed as cell-based, human. The procedure:
(§3) Cell proliferation was assessed using a standard MTT (3,(4,5-dimethylthiazol-2yl)2,5-diphenyltetrazolium bromide; Sigma, St. Louis, Mo.) dye at 570 nm. Cells were into seeded in 96-well microtiter plates (2×10^5 cells/well) using 200 μl of medium. After a 12 hour incubation, Taurolidine was applied for a period of 6, 9, 12, 24 or 48 hours. At each time point 20 μl of MTT (5 mg/ml) was added and the cells were incubated at 37° C. for an additional 30 minutes. The medium was removed and the dye was eluted using acidic isopropyl alcohol (0.04N HCl). Cell viability was measured using crystal violet dye. Cells were seeded and treated with Taurolidine as described for the MTT assay. The medium was then removed and the cells were stained and fixed using a crystal violet staining solution containing 0.75% Crystal violet, 50% EtOH, 0.25% NaCl, and 1.75% formaldehyde for 10 minutes at room temperature. After staining and fixation the cells were rinsed with water and air-dried. The crystal violet dye was eluted using a 1% SDS in PBS solution and the absorbance was measured at 540 nm in a microtiter plate reader.
(§4) The human LS-180 colon cancer cell line was incubated with 25, 50, 75, and 100 μm concentrations of Taurolidine, and an MTT assay was performed at 6, 9, 12, 24 and 48 hours after Taurolidine administration. An accompanying crystal violet assay was performed under the same conditions. […] Flow cytometry was also performed using bromodeoxyuridine (BrdU) to help quantify the proportion of cells in S phase and evaluate cell proliferation.

Data set [8] deals with LS-180 cells. The data set is described as follows: Crystal violet cell viability / adherent cell assay. The data set is classed as cell-based, human. The protocol: as §3, §4
[9] abbreviates: treatment begun 2 days after splenic tumor injection.
Setting [10] is: treatment begun 5 days after splenic tumor injection.
[11] abbreviates: dose-dependent, concentration not given.

With `O=S1(=O)CCN(CN2CCS(=O)(=O)NC2)CN1` [Taurolidine, bis(1,1-dioxoperhydro-1,2,4-thiadiazinyl-4)methane], the “tolerability / deaths during therapy” value in data set [1] (10-mg per day IP, five consecutive days x 3 weeks) is reported as “well tolerated, resulting in no deaths of animals; also recorded: all mice tolerated the full 3-week course of treatment”. For the same molecule, the “Serum CEA” value in data set [1] (Day 2 group) worked out at 7.73 ± 0.52 ng/mL. For the same molecule, the “Serum CEA” value in data set [1] (Day 5 group) was determined as 11.88 ± 1.97 ng/mL. The “gross hepatic tumor burden vs control” value in data set [1] (daily IP Taurolidine for 3 weeks, begun day 2 or 5) is listed as “dramatic reduction in hepatic tumor involvement; also recorded: dramatic reduction of tumor burden; also recorded: striking decrease in tumor burden; also recorded: marked reduction in tumor burden; also recorded: marked decrease in tumor burden”. Also, in [1] (setting [9]), the “reduction in serum CEA levels vs control” value amounted to 69% and the “reduction in liver weight vs control” value is recorded as 18%. Further, in data set [1] (setting [10]), the “reduction in serum CEA levels vs control” value is listed as 78% and the “reduction in liver weight vs control” value amounted to 22%. Besides, in the data set with caspase-3 (100, 200 and 400 μM, 12, 24 and 36 hours), the caspase-3 activity entry is given as “dose-dependent increase; also recorded: dose dependent increase”. Further, in the data set with LS-180 cells [2] (50 and 100 μm, 24 hours), the “sub-G1 peak by propidium iodide flow cytometry” value was “failed to demonstrate a sub-GI peak; also recorded: failed to demonstrate a sub-G1 peak”. Moreover, the “sub-diploid DNA peak (DNA degradation in apoptotic cells)” value with LS-180 cells [2] (100, 200 and 400 μM, 24 hours) was “dose dependent increase”. For the same molecule, in the data set with LS-180 cells [2] (treated vs untreated cells, 50 and 100 μm), the “cell cycle progression / proliferation (flow cytometry, BrdU)” value was “no significant change in cell cycle progression; also recorded: no significant change in proliferation or cell cycle”. For the same molecule, the apoptotic morphology entry with LS-180 cells [3] is “failed to demonstrate cell shrinkage, cytoplasmic condensation, nuclear fragmentation or blebbing”. The “cytolysis (culture medium LDH activity)” value in the data set on LS-180 cells [4] was “no significant cytolysis”. For the same molecule, the cytotoxicity in data set [5] (50, 100 and 400 μm, 12 or 24 hours, read-out: percent cytotoxicity (LDH release), all cases) was under 2%. Further, the cytotoxicity at 24 h, 50 µM in data set [5] (50 μm, 24 hours, read-out: percent cytotoxicity (LDH release)) is -0.07%. In [5] (100 μm, 24 hours, read-out: percent cytotoxicity (LDH release)), the cytotoxicity at 24 h, 100 µM was found to be 0.15%. Further, in data set [5] (400 μm, 24 hours, read-out: percent cytotoxicity (LDH release)), the cytotoxicity at 24 h, 400 µM was 1.58%. Moreover, in the data set on LS-180 cells [6], the “decrease in tumor cell viability (WST-8 assay)” value amounted to 85%. The “decrease by MTT assay” value in the data set with LS-180 cells [7] (100 μm Taurolidine, present as early as 9 hours after exposure) is on record as 40–50%. For the same molecule, the “reduction in cell number (MTT assay)” value with LS-180 cells [7] (100 μm, after 24 hours) is recorded as 40–50%. The “decrease in adherent tumor cells (MTT assay)” value in the data set on LS-180 cells [7] (setting [11]) is recorded as 60%. Also, the “cell adherence (crystal violet assay)” value in the data set on LS-180 cells [8] (10-400 μM Taurolidine) was “loss of cell adherence”. Further, in the data set on LS-180 cells [8] (100 μm, after 24 hours), the “reduction in cell number (crystal violet assay)” value is 40–50%. Also, in the data set with LS-180 cells [8] (setting [11]), the “decrease in adherent tumor cells (crystal violet assay)” value was determined as 60% and the “decrease in tumor cell viability (crystal violet assay)” value was found to be 85%.

For z-Val-Ala-Asp(OMe)-CH2F [Z-VAD-fmk], the “caspase-3 activity in Taurolidine-treated cells after caspase inhibition” value with caspase-3 (50 μM Z-VAD-fmk before 100, 200, 400 μM Taurolidine, vs untreated LS-180 cells) was “no significant increase in caspase-3 activity”. In the data set with LS-180 cells [8] (50-uM Z-VAD-fmk before Taurolidine), the “loss of cell adherence of Taurolidine-treated cells after caspase inhibition (crystal violet)” value is on record as “not affected”.
